Data on two molecules can be found in paper PMC10518255, “A first-in-class pan-lysyl oxidase inhibitor impairs stromal remodeling and enhances gemcitabine response and survival in pancreatic cancer” (Nature Cancer, 2023).

The subject of one assay is KPC mouse model of PDAC. The assay can be described thus: Overt metastatic lesions observed during necropsy, KPC survival study. The note with it: for Ascites / overt metastatic lesions, Diaphragm / overt metastatic lesions, Liver / overt metastatic lesions, Lungs / overt metastatic lesions, Small intestine: KPC mice. It is filed as in vivo. Here is the method:
(§1) Fig. 4 PXS-5505 administered in a KPC in vivo survival study. a, Schematic of the KPC in vivo survival study. Presence of a primary tumor in KPC mice was confirmed by two independent researchers (positive diagnosis) before commencement of daily treatment (Tx) on one of four treatment arms as follows: vehicle, 0.9% saline; Gem, twice-weekly gemcitabine (100 mg kg^−1 i.p.); PXS-5505, daily PXS-5505 at 20 mg kg^−1 i.p.; and PXS-5505 + Gem, daily PXS-5505 at 20 mg kg^−1 i.p. + twice-weekly gemcitabine (100 mg kg^−1 i.p.). b, Table of median survival (since diagnosis/commencement of treatment) across the four treatment groups (n = 30 biologically independent animals (vehicle), n = 31 biologically independent animals (Gem), n = 36 biologically independent animals (PXS-5505), n = 46 biologically independent animals (PXS-5505 + Gem)). c, Kaplan–Meier curves for overall survival across treatment arms (n = 30 biologically independent animals (vehicle), n = 31 biologically independent animals (Gem), n = 36 biologically independent animals (PXS-5505), n = 46 biologically independent animals (PXS-5505 + Gem)). P values determined by log-rank (Mantel–Cox) test. d, Representative maximum intensity projections of SHG multiphoton imaging for tumors from each treatment group (n = 1 FOV taken from one biologically independent animal per group) at end point (scale bars, 100 μm) and quantification of SHG peak signal intensity (n = 5 biologically independent animals per group and five FOV per animal). Data are mean ± s.d. […] Quantification of metastases (n = 18 biologically independent animals (vehicle), n = 18 biologically independent animals (Gem), n = 17 biologically independent animals (PXS-5505), n = 15 biologically independent animals (PXS-5505 + Gem)). Data are mean ± s.d.
We quantified presence of overt metastatic dissemination to organs across the different treatment groups (Fig. 4f).
For the KPC autochthonous model, gemcitabine HCl (Jomar Life Research) or vehicle control (0.9% saline) was administered by i.p. injection twice weekly (100 mg kg^−1 in saline) on day 2 and 4 of the treatment cycle until the end point was reached. GLP-grade PXS-5505 (20 mg kg^−1 in saline) or vehicle (0.9% saline) was administered daily by i.p. injection. Treatment of mice was initiated upon detection of a palpable tumor, verified by two independent researchers and monitoring of mice continued daily until the experimental end point. End points were defined as development of ascites, overnight weight loss >10% of body weight, hunching posture and/or signs of distress and/or suffering, total weight loss ≥20% from maximum body weight or tumor interfering with mobility and access to food and water. The maximal tumor burden allowed by ethics was not exceeded. At the end point, primary tumors and secondary metastatic organs (including liver, small intestine, diaphragm and lungs) were collected and samples were taken for formalin fixation overnight, unconfined compression analysis and snap-frozen for tissue banking. Fixed tissues were processed according to standard histology protocols and paraffin-embedded.

The next assay relates to KPC PDAC tumors. Kind of assay: Bulk modulus (stiffness) by unconfined compression testing of end-point KPC tumors. It is filed as in vivo, mouse. Also noted: key to Bulk modulus (stiffness) by unconfined compression testing: bulk elastic modulus in kPa. To be noted: for tumor bulk modulus (stiffness): end-point KPC tumors; for Bulk modulus (stiffness) by unconfined compression testing: endpoint PDAC tumours, individual tumours. Here is the method: as §1
Unconfined compression of in vivo tissue samples was carried out on 2–3-mm cross-sectional slices using a TA Instruments Dynamic Hybrid Rheometer (DHR-3, TA Instruments). Tissue samples were placed between upper and lower parallel plate geometries. A constant linear compressive rate of 5 µm s^−1 was applied to the samples and axial force (N) and gap (mm) were collected every 0.01 s. Data were processed and a stress–strain curve for each replicate was obtained. Bulk elastic modulus (kPa) was obtained as the gradient of the linear region of the stress–strain curve corrected for cross-sectional area of sample. Data points represent individual biological replicates.

Values joined by “and” are separate entries in the source; they are usually repeats but may differ in a detail not shown here. Equal values may be shown once.

In the case of `Nc1ccn([C@@H]2O[C@H](CO)[C@@H](O)C2(F)F)c(=O)n1` [Gem, gemcitabine], in the assay on KPC mouse model of PDAC, the “Ascites (number of mice)” value is on record as 1/20; the “overt metastatic lesions, Diaphragm (number of mice)” value is recorded as 3/20; the “overt metastatic lesions, Liver (number of mice)” value is on record as 3/20; the “overt metastatic lesions, Lungs (number of mice)” value was 5/20. In the assay on KPC mouse model of PDAC, the “overt metastatic lesions, Small intestine (number of mice)” value was 9/20; the Ascites is on record as 5%; the “overt metastatic lesions, Diaphragm” value was 15%; the “overt metastatic lesions, Liver” value worked out at 15%. Also, in the assay with KPC mouse model of PDAC, the “overt metastatic lesions, Lungs” value is recorded as 25% and the “overt metastatic lesions, Small intestine” value amounted to 45%. In the assay with KPC PDAC tumors, the “tumor bulk modulus (stiffness)” value worked out at 20.0 kPa; the “Bulk modulus (stiffness) by unconfined compression testing” value is 26.381 and 11.231 and 14.142 and 18.28 and 20.014.
In the case of `Cl.Cl.NC/C=C(\F)CS(=O)(=O)c1cccc2cccnc12.O` [PXS-5505, (Z)-3-fluoro-4-(quinolin-8-ylsulfonyl)but-2-en-1-amine dihydrochloride monohydrate], in the assay on KPC mouse model of PDAC, the “Ascites (number of mice)” value is 3/23; the “overt metastatic lesions, Diaphragm (number of mice)” value is 2/23; the “overt metastatic lesions, Liver (number of mice)” value is reported as 3/23; the “overt metastatic lesions, Lungs (number of mice)” value is 2/23. Also, in the assay on KPC mouse model of PDAC, the “overt metastatic lesions, Small intestine (number of mice)” value is recorded as 8/23; the Ascites amounted to 13%; the “overt metastatic lesions, Diaphragm” value is 9%; the “overt metastatic lesions, Liver” value came to 13%. In addition, in the assay on KPC mouse model of PDAC, the “overt metastatic lesions, Lungs” value worked out at 9% and the “overt metastatic lesions, Small intestine” value is listed as 35%. In the assay on KPC PDAC tumors, the “tumor bulk modulus (stiffness)” value is “moderate reduction in stiffness”; the “Bulk modulus (stiffness) by unconfined compression testing” value was 1.01 and 4.478 and 8.389 and 5.347 and 1.487.
